# Experimental data reported in patent publication US20020037872A1, “N6 heterocyclic 5' modified adenosine derivatives” (CV Therapeutics, Inc., priority 1999, published 2002).
# Entries after “also recorded” stand apart in the source; their conditions may differ.
# Legend:
# A1 adenosine receptor [1] = molecular target: T1, A1 adenosine receptor (Cavia porcellus, UniProt P47745); test: Guinea pig isolated perfused heart: S-H interval, heart rate, atrial MAP; conditions: for effect on atrial monophasic action potential: FIG. 1 panel B; for effect on AV nodal conduction time (S-H interval) / second-degree AV block: FIG. 1 panel C; for effect on heart rate (chronotropic): spontaneously beating hearts, FIG. 1 panel A
# T1 construct: The hearts were quickly removed and rinsed in ice-cold Krebs-Henseleit solution; from tissue; host or cells: guinea pig isolated perfused heart
# T1 sequence (P47745 1-326): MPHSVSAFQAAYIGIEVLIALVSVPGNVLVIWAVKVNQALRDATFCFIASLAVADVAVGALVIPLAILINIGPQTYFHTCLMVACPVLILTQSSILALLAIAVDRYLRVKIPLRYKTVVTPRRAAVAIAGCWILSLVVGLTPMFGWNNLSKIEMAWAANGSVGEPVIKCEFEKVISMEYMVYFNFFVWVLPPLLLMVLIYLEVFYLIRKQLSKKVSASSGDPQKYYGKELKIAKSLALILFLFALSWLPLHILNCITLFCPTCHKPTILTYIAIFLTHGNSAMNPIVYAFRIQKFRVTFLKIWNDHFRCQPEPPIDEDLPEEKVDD
# Description: Guinea pigs of either sex weighing 250-300 g were anesthetized with methoxyflurane and killed by cervical dislocation. The hearts were quickly removed and rinsed in ice-cold Krebs-Henseleit solution. The aorta was cannulated and the heart retrogradely perfused at a constant flow of 10 ml min^−1 with modified Krebs-Henseleit solution containing (mM): NaCL 117.9, KCl 4.8, CaCl2 2.5, MgSO4 1.18, KH2PO4 1.2, Na2EDTA 0.5, ascorbic acid 0.14, glucose 5.5, pyruvic acid (sodium salt) 2.0, and NaHCO3 25. The K—H solution was oxygenated with 95% oxygen and 5% CO2, pH 7.4, and temperature maintained at 36° C.
# Hearts were electrically paced at a cycle length of 290-300 ms (unless otherwise indicated) using a bipolar electrode placed on the right atrium or ventricle. The stimulator, an interval generator (Model 1830, WPI, Sarasota, Fla., U.S.A.) delivered stimuli through a stimulus isolation unit (Model 1880, WPI) as square wave pulses of 3 ms in duration and at least twice the threshold intensity. The stimulus-to-His bundle (S—H) interval was used as index of AV nodal conduction time and was measured on-line during constant atrial pacing from microcomputer with a DT-208 1A interface board (Axon Instruments, Burlingame, Calif., U.S.A.) In experiments to study the chronotropic effect (effect on heart rate) of A1 AdoR agonists, the hearts were allowed to beat spontaneously. An atrial electrogram was used to record the electrical activity of the atria and to measure the heart rate.
# Monophasic action potentials (MAP) were recorded using a pressure contact silver-silver chloride electrode (Langendorf Probe, EP Technologies, Inc., Sunnyvale, Calif., U.S.A.) placed on the surface of the left atrium. […] Signals were considered adequate if they were stable for at least 5 min and the amplitudes of the MAPs exceeded 10 mV. The data were digitized at 2 kHz by a DT-2801A digitizing board (Data Translation, Marlboro, Mass., U.S.A.) and stored using the Snapshot data acquisition program (Snapshot Storage Scope, HEM Data Corp., Southfield, Mich., U.S.A.) for later analysis. The duration of the atrial monophasic action potential was measured at 90% repolarization (MAPD90), using the Snapshot program. After completion of dissection and instrumentation, the hearts were allowed to equilibrate for 30 min before the experiments were begun. Whenever the baseline and post-intervention (washout) values differed by more than 15% the data were discarded. Approximately 60-70% of the experiments conformed with this criteria.
# A1 receptor [2] = molecular target: T2, A1 receptor (Oryctolagus cuniculus, UniProt P34970); conditions: administered prior to ischemia; cited from earlier work
# T2 construct: a rabbit ischemia model wherein 2-chloro-N6-cyclopentyladenosine (CCPA) and R-PIA were administered prior to ischemia; host or cells: rabbit in vivo
# T2 sequence (P34970 1-328): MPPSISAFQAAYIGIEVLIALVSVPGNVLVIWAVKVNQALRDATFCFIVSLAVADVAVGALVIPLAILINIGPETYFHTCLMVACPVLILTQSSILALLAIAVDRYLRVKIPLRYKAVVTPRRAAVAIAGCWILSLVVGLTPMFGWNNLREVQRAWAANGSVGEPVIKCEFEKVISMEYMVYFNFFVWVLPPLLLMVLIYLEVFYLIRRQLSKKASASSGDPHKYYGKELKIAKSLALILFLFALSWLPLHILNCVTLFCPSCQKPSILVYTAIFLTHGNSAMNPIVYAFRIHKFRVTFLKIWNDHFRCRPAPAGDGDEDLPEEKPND
# A1 adenosine receptor [3] = molecular target: T3, A1 adenosine receptor (Mesocricetus auratus, UniProt A0A1U8BVR4); test: cAMP assay (SPA) in DDT1 cells, forskolin-induced cAMP; format: cell-based, hamster
# T3 construct: endogenous in cells; host or cells: DDT1 (DDT1 MF-2) hamster vas deferens smooth muscle cells
# T3 sequence (A0A1U8BVR4 1-326): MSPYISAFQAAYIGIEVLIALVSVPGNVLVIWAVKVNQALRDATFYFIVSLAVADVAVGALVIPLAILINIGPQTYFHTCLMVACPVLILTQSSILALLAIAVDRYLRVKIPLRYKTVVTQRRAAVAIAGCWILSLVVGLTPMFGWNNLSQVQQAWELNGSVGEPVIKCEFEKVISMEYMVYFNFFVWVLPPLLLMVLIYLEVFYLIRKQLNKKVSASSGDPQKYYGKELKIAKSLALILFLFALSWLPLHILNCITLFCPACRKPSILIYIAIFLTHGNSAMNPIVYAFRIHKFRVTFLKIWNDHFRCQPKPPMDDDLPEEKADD
# Description: A scintillation proximity assay (SPA) using rabbit antibodies directed at cAMP using an added tracer of adenosine 3′,5′-cyclic phosphoric acid 2′-O-succinyl-3-[^125I]iodotyrosine methyl ester and fluoromicrospheres containing anti-rabbit specific antibodies as described by Amersham Pharmacia Biotech (Biotrak cellular communication assays). Briefly, DDT1 cells were cultured in clear bottomed 96 well microtiter plates with opaque wells at concentrations between 10^4 to 10^6 cells per well in 40 μl of HBSS at 37° C. (5% CO2 and 95% humidity). The partial or full A1 agonists (5 μl) of this invention were incubated at various concentrations with the DDT1 cells in the presence of rolipram (50 μM), and 5 μM forskolin for 10 min at 37° C. The cells were immediately lysed by treatment 5 μl of 10% dodecyltrirnethylammonium bromide followed by shaking using rnicroplate shaker. After incubation of the plate for 5 minutes, an imnuunoreagent solution (150 μl containing equal volumes of tracer, antiserum, and SPA fluorospheres) was added to each well followed by sealing the plate. After 15-20 h at 23° C., the amount of bound [^125] cAM to the fluoromicrospheres was determined by counting in a microtitre plate scintillation counter for 2 minutes. Comparison of counts with standard curves generated for cAMP using a similar protocol afforded the cAMP present after cell lysis.
# A1 receptor [4] = molecular target: A1 receptor (Cavia porcellus, UniProt P47745); conditions: chronic administration for 7 days; cited from earlier work
# white adipocytes = conditions: cited from earlier work
# [5] = seizures induced by DMCM; cited from earlier work
Structure (SMILES),effect on atrial monophasic action potential (A1 adenosine receptor [1]),effect on AV nodal conduction time (S-H interval) (A1 adenosine receptor [1]),second-degree AV block (A1 adenosine receptor [1]),effect on heart rate (chronotropic) (A1 adenosine receptor [1]),also measured
"OC[C@H]1O[C@@H](n2cnc3c(NC4CCCC4)nc(Cl)nc32)[C@H](O)[C@@H]1O [CCPA, 2-chloro-N6-cyclopentyladenosine]",shortened the monophasic atrial action potential,prolonged the S—H interval,caused second-degree AV block,slowed heart rate,protection with respect to infarct size (A1 receptor [2]): providing protection with respect to infarct size
"OC[C@H]1O[C@@H](n2cnc3c(NC4CCCC4)ncnc32)[C@H](O)[C@@H]1O [CPA, N-6-cyclopentyladenosine]",shortened the monophasic atrial action potential,prolonged the S—H interval,caused second-degree AV block,slowed heart rate,"second degree AV block (A1 adenosine receptor [1]; 30 nM CPA, four hearts): Second degree AV block occurred in all hearts; effect on forskolin induced cAMP generation (A1 adenosine receptor [3]; DDT1 cells): diminished the amount of forskolin induced cAMP generation back to basal levels; cAMP (A1 adenosine receptor [3]; normalized to full agonist CPA, 5 μM forskolin, 50 μM rolipram): 100%"
"O=c1[nH]c(=O)c2[nH]c(C3CCCC3)nc2[nH]1 [CPX, 8-cyclopentylxanthine]",,,,,"antagonism of S-H interval prolongation caused by Compound 6 (A1 adenosine receptor [1]; CPX 50 nM, cycle length 300 msec, FIG. 2): significant (P<0.05); also recorded: antagonizes the prolongation of S—H interval caused by compound 6"
"C[C@H](Cc1ccccc1)Nc1ncnc2c1ncn2[C@@H]1O[C@H](CO)[C@@H](O)[C@H]1O [R-PIA, R-N6-phenylisopropyladenosine]",,,,,desensitization of A1 receptor (dromotropic response) (A1 receptor [4]): led to a desensitization; leptin release (white adipocytes): increase the leptin released from white adipocytes
Cc1ccccc1CNc1ncnc2c1ncn2[C@@H]1O[C@H](CO)[C@@H](O)[C@H]1O [metrifudil],,,,,anticonvulsant activity [5]: potent anticonvulsant
